Marks after values point to notes of the source that are not given here. *1 amine or outer side, *2 acyl side, *3 side chain or, on linkers, in order; H or OH if unused. Where a SMILES comes first, the peptide text is derived from it. Bridges are numbered along the chain shown (N, C = ends). Maleimide(3,4-diyl) = O=C1NC(=O)C([*:2])=C1[*:1]
Experiments:
N‐Myc protein levels = settings: cited from earlier work
Excerpt: (§1) Similarly, Weiss and co‐workers developed a series of conformation‐disrupting Aurora‐A inhibitors based on diaminopyrimidine and pyrazolopyrimidine scaffolds, such as CD532.[8]

Aurora‐A and N‐Myc = settings: in comparison to established allosteric Aurora‐A inhibitors; cited from earlier work
Excerpt: as §1

[1] = tested on: N‐Myc/Aurora‐A interaction; settings: competition co‐precipitation; cited from earlier work
Excerpt: as §1

circular dichroism = test: circular dichroism; set-up: unit not given here; settings: 25 mM Tris, 150 mM NaCl, 5 mM MgCl2; pH 7.5; 5 °C; 30-120 uM
[2] = target: T1, N‐Myc/Aurora‐A interaction (Aurora‐A122‐403‐C290A/C393A) (Homo sapiens, UniProt O14965, C290A/C393A); test: competition fluorescence anisotropy (FA) assay against fluorescein labelled N‐Myc61‐89; format: binding; settings: SD; note: equilibrated 2 h at room temperature
T1 construct: Aurora‐A 122‐403‐C290A/C393A protein was produced as described previously; made in house
T1 sequence (O14965 122-403 C290A/C393A): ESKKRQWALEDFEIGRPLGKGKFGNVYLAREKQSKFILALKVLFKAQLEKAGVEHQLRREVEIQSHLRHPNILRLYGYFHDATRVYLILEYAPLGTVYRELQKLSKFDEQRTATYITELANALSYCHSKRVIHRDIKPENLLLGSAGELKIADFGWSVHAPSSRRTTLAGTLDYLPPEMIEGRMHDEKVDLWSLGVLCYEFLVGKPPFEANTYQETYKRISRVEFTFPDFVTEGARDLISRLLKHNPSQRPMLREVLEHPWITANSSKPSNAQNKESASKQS

[3] = circular dichroism (CD) spectroscopy; format: physicochemical; settings: 150 mM NaCl, 5 mM MgCl2, pH 7.5, 5 °C, n=2, free‐thiol (red) samples with 5 mol equivalents TCEP; for MRE222 (mean residue ellipticity at 222 nm): 25 mM Tris, mean ± SD, SD; for % Helicity (estimated): from MRE222 by equation 7, 25 mM Tris
Procedure, shortened: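 Peptides at 30–120 μM in 25 mM Tris, 150 mM NaCl, 5 mM MgCl2, pH 7.5 (plus 5 mol eq. TCEP for free sulfhydryl peptides) were scanned in duplicate at 5 °C from 290 to 180 nm, 1 mm pathlength. Buffer-subtracted ellipticity gave mean residue ellipticity, and % helicity was estimated from MRE at 222 nm.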

IC50 [2] [µM]	MRE222 (mean residue ellipticity at 222 nm) [3]	% Helicity (estimated) [3] [%]	Molecule	N‐Myc protein levels in xenographs (N‐Myc protein levels)	degradation of Aurora‐A and N‐Myc (Aurora‐A and N‐Myc)	disruption of the N‐Myc/Aurora‐A interaction [1]	helicity (circular dichroism)
–	–	–	O=C(Nc1ccc(Nc2nccc(Nc3cc(C4CCCC4)[nH]n3)n2)cc1)Nc1cccc(C(F)(F)F)c1 [CD532]	reduced N‐Myc protein levels	–	–	–
–	–	–	CN(C)C(=O)c1cc2cnc(Nc3ccc(C(=O)NCCCCCCOc4cccc5c4C(=O)N(C4CCC(=O)NC4=O)C5=O)cc3)nc2n1C1CCCC1 (stereo not drawn) [HLB‐0532259]	–	promote degradation of Aurora‐A and N‐Myc with superior potency	–	–
–	–	–	O=C(O)c1ccc(Nc2ncc3c(n2)-c2ccc(Cl)cc2C(c2c(F)cccc2F)=NC3)cc1 [MLN8054]	–	–	disrupted	–
217 ± 13	−5541±66 deg cm^−1 dmol^−1 res^−1	17±1	CSCC[C@H](NC(=O)[C@H](CCC(=O)O)NC(=O)[C@@H](NC(=O)[C@@H](NC(=O)[C@H](Cc1c[nH]c2ccccc12)NC(=O)[C@H](CO)NC(=O)[C@@H]1CCCN1C(=O)[C@@H]1CCCN1C(=O)[C@H](CO)NC(C)=O)C(C)C)[C@@H](C)O)C(=O)N[C@@H](CC(C)C)C(=O)N[C@@H](CC(C)C)C(=O)N[C@@H](CCC(=O)O)C(=O)N[C@@H](CC(N)=O)C(=O)N[C@@H](CCC(=O)O)C(=O)N[C@@H](CC(C)C)C(=O)N[C@@H](Cc1c[nH]c2ccccc12)C(=O)NCC(N)=O [N‐Myc73‐89‐E73S]	–	–	–	-5540
199 ± 13	−4235±181 deg cm^−1 dmol^−1 res^−1	13±1	CSCC[C@H](NC(=O)[C@H](CCC(=O)O)NC(=O)[C@@H](NC(=O)[C@@H](NC(=O)[C@H](Cc1c[nH]c2ccccc12)NC(=O)[C@H](CO)NC(=O)[C@@H]1CCCN1C(=O)[C@@H]1CCCN1C(=O)[C@H](CCC(=O)O)NC(C)=O)C(C)C)[C@@H](C)O)C(=O)N[C@@H](CC(C)C)C(=O)N[C@@H](CC(C)C)C(=O)N[C@@H](CCC(=O)O)C(=O)N[C@@H](CC(N)=O)C(=O)N[C@@H](CCC(=O)O)C(=O)N[C@@H](CC(C)C)C(=O)N[C@@H](Cc1c[nH]c2ccccc12)C(=O)NCC(=O)N[C@@H](CO)C(=O)N1CCC[C@H]1C(=O)N[C@@H](C)C(=O)N[C@@H](CCC(=O)O)C(=O)N[C@@H](CCC(=O)O)C(N)=O [N‐Myc73‐94]	–	–	–	-4240
172 ± 23	−7454±130 deg cm^−1 dmol^−1 res^−1	21±1	CSCC[C@H](NC(=O)[C@H](CCC(=O)O)NC(=O)[C@@H](NC(=O)[C@@H](NC(=O)[C@H](Cc1c[nH]c2ccccc12)NC(=O)[C@H](CO)NC(=O)[C@@H]1CCCN1C(=O)[C@@H]1CCCN1C(=O)[C@H](CCC(=O)O)NC(C)=O)C(C)C)[C@@H](C)O)C(=O)N[C@@H](CC(C)C)C(=O)N[C@@H](CC(C)C)C(=O)N[C@@H](CCC(=O)O)C(=O)N[C@@H](CC(N)=O)C(=O)N[C@H]1CSSC[C@@H](C(=O)N2CCC[C@H]2C(=O)N[C@@H](C)C(=O)N[C@@H](CCC(=O)O)C(=O)N[C@@H](CCC(=O)O)C(N)=O)NC(=O)CNC(=O)[C@H](Cc2c[nH]c3ccccc23)NC(=O)[C@H](CC(C)C)NC1=O [N‐Myc73‐94‐E86C/S90C (ox)] (Ac-EPPSWVTEMLLENCLWGCPAEE-NH2; disulfide 14-18)	–	–	–	-7450
203 ± 4	−6397±64^[e] deg cm^−1 dmol^−1 res^−1	18±1	CSCC[C@H](NC(=O)[C@H](CCC(=O)O)NC(=O)[C@@H](NC(=O)[C@@H](NC(=O)[C@H](Cc1c[nH]c2ccccc12)NC(=O)[C@H](CO)NC(=O)[C@@H]1CCCN1C(=O)[C@@H]1CCCN1C(=O)[C@H](CCC(=O)O)NC(C)=O)C(C)C)[C@@H](C)O)C(=O)N[C@@H](CC(C)C)C(=O)N[C@@H](CC(C)C)C(=O)N[C@@H](CCC(=O)O)C(=O)N[C@@H](CC(N)=O)C(=O)N[C@@H](CS)C(=O)N[C@@H](CC(C)C)C(=O)N[C@@H](Cc1c[nH]c2ccccc12)C(=O)NCC(=O)N[C@@H](CS)C(=O)N1CCC[C@H]1C(=O)N[C@@H](C)C(=O)N[C@@H](CCC(=O)O)C(=O)N[C@@H](CCC(=O)O)C(N)=O [N‐Myc73‐94‐E86C/S90C (red)] (Ac-EPPSWVTEMLLENCLWGCPAEE-NH2)	–	–	–	-6400
49 ± 5	–	–	CSCC[C@H](NC(=O)[C@H](CCC(=O)O)NC(=O)[C@@H](NC(=O)[C@@H](NC(=O)[C@H](Cc1c[nH]c2ccccc12)NC(=O)[C@H](CO)NC(=O)[C@@H]1CCCN1C(=O)[C@@H]1CCCN1C(=O)[C@H](CCC(=O)O)NC(C)=O)C(C)C)[C@@H](C)O)C(=O)N[C@@H](CC(C)C)C(=O)N[C@@H](CC(C)C)C(=O)N[C@@H](CCC(=O)O)C(=O)N[C@H]1CSC2=C(SC[C@@H](C(=O)N[C@@H](CO)C(=O)N3CCC[C@H]3C(=O)N[C@@H](C)C(=O)N[C@@H](CCC(=O)O)C(=O)N[C@@H](CCC(=O)O)C(N)=O)NC(=O)[C@H](Cc3c[nH]c4ccccc34)NC(=O)[C@H](CC(C)C)NC(=O)[C@H](CCC(=O)O)NC1=O)C(=O)NC2=O [N‐Myc73‐94‐N85C/G89C (mal)] (Ac-EPPSWVTEMLLECELWCSPAEE-NH2; linker 13-17 via Maleimide(3,4-diyl))	–	–	–	-7220
130 ± 9	−5255±217 deg cm^−1 dmol^−1 res^−1	15±1	CSCC[C@H](NC(=O)[C@H](CCC(=O)O)NC(=O)[C@@H](NC(=O)[C@@H](NC(=O)[C@H](Cc1c[nH]c2ccccc12)NC(=O)[C@H](CO)NC(=O)[C@@H]1CCCN1C(=O)[C@@H]1CCCN1C(=O)[C@H](CCC(=O)O)NC(C)=O)C(C)C)[C@@H](C)O)C(=O)N[C@@H](CC(C)C)C(=O)N[C@@H](CC(C)C)C(=O)N[C@@H](CCC(=O)O)C(=O)N[C@H]1CSSC[C@@H](C(=O)N[C@@H](CO)C(=O)N2CCC[C@H]2C(=O)N[C@@H](C)C(=O)N[C@@H](CCC(=O)O)C(=O)N[C@@H](CCC(=O)O)C(N)=O)NC(=O)[C@H](Cc2c[nH]c3ccccc23)NC(=O)[C@H](CC(C)C)NC(=O)[C@H](CCC(=O)O)NC1=O [N‐Myc73‐94‐N85C/G89C (ox)] (Ac-EPPSWVTEMLLECELWCSPAEE-NH2; disulfide 13-17)	–	–	–	-5260
123 ± 10	−4383±64^[e] deg cm^−1 dmol^−1 res^−1	13±1	CSCC[C@H](NC(=O)[C@H](CCC(=O)O)NC(=O)[C@@H](NC(=O)[C@@H](NC(=O)[C@H](Cc1c[nH]c2ccccc12)NC(=O)[C@H](CO)NC(=O)[C@@H]1CCCN1C(=O)[C@@H]1CCCN1C(=O)[C@H](CCC(=O)O)NC(C)=O)C(C)C)[C@@H](C)O)C(=O)N[C@@H](CC(C)C)C(=O)N[C@@H](CC(C)C)C(=O)N[C@@H](CCC(=O)O)C(=O)N[C@@H](CS)C(=O)N[C@@H](CCC(=O)O)C(=O)N[C@@H](CC(C)C)C(=O)N[C@@H](Cc1c[nH]c2ccccc12)C(=O)N[C@@H](CS)C(=O)N[C@@H](CO)C(=O)N1CCC[C@H]1C(=O)N[C@@H](C)C(=O)N[C@@H](CCC(=O)O)C(=O)N[C@@H](CCC(=O)O)C(N)=O [N‐Myc73‐94‐N85C/G89C (red)] (Ac-EPPSWVTEMLLECELWCSPAEE-NH2)	–	–	–	-4380
215 ± 11	−4342±142 deg cm^−1 dmol^−1 res^−1	14±1	Ac-SWVTEMLLENELWG-NH2 [N‐Myc76‐89]	–	–	–	-4340

— article PMC10962542, “Inhibition of Aurora‐A/N‐Myc Protein–Protein Interaction Using Peptidomimetics: Understanding the Role of Peptide Cyclization” (Chembiochem, 2023)
